This is an account of results in patent publication US20260034158A1, “METHODS OF TREATING CANCER OF THE CENTRAL NERVOUS SYSTEM COMPRISING 5-ETHYNYL-2'-DEOXYURIDINE” (The University of North Carolina at Chapel Hill, priority 2022, published 2026).

Data set [1] deals with nucleotide excision repair in HeLa cells. In words: In vivo excision assay with TFIIH antibody immunoprecipitation. Conditions: for substrate for excision repair: when incorporated into the DNA of replicating cells, summary statement. It is filed as cell-based, human. On the procedure:
(§1) UV Irradiation and Thymidine analog treatment: HeLa cells were grown to ˜80% confluence, culture medium was removed, cells were washed twice with PBS, and then were placed under a GE germicidal lamp emitting primarily 254-nm UV light (1 J/m^2/sec) connected with a digital timer for 20sec (20 J/m^2 in total). Cells were collected after 1 hour repair. Thymidine analogs were dissolved in sterile PBS (BrdU, EdU, CldU) or DMSO (IdU, F-ara-EdU, AmdU), and then added to cell culture medium at final concentration of 10 μM for indicated times.
(§2) In vivo excision assay: For in vivo excision assay with BrdU antibody, low molecular DNAs isolated by Hirt procedure as previously described (ref 17) were subject to immunoprecipitation with anti-BrdU antibody. For in vivo excision assay with TFIIH antibody, cells were lysed in buffer A (25 mM HEPES at pH7.9, 100 mM KCl, 12 mM MgCl2, 0.5 mM EDTA, 2 mM DTT, 12.5% glycerol, 0.5% NP-40), and excised oligonucleotides complexed with TFIIH protein were immunoprecipitated with TFIIH antibody. Purified oligonucleotides from BrdU IP or TFIIH IP were 3′ end-labeled by terminal deoxynucleotidyl transferase (TdT), α-^32P-ATP with a standard 50 mer oligonucleotide as spike internal control. After phenol-chloroform extraction and ethanol precipitation, labeled DNAs were fractionated with 12% denaturing sequencing gels.

The test system is the same in data set [2]. As to the kind of experiment: In vivo excision assay with anti-BrdU antibody immunoprecipitation. It is filed as cell-based, human. As to conditions: for excised oligomers (nominal 26-mer) precipitated by anti-BrdU antibodies: 10 μM thymidine analog, 24 h, no UV. The method, then: as §1, §2
Data set [3] has as its system HeLa cells. As to the kind of experiment: Slot blot assay of thymidine analog incorporation into genomic DNA. As to conditions: 10 μM thymidine analog, 24 h, anti-BrdU antibody. It is filed as cell-based, human. The method, then:
Slot blot assay: HeLa cells were plated in 100 mm plates and treated with 10 μM thymidine analogs for 24 h. Genomic DNA was purified from cell pellets using QIAamp DNA mini kit (Qiagen, 51306). DNA concentrations were determined using a Qubit 3.0 fluorometer. 250 ng of each DNA was diluted with TE buffer (10 mM Tris-HCl pH8, 1 mM EDTA) to a total volume of 250 μL, then boiled at 90° C. for 10 min and cooled in ice water immediately. 250 μL cold ammonium acetate (2 M) was added to neutralize DNA, and then DNA samples were loaded onto nitrocellulose membranes using a slot blot apparatus. Membranes were transferred to a vacuum oven and baked for 1.5 h at 80° C., then blocked with 5% dried milk and incubated with either anti-BrdU antibody (1:1000) or anti-ssDNA antibody (1:5000) as loading control overnight at 4° C. After incubating with a horseradish peroxidase (HRP) labeled secondary antibody (1:10000) for 1 h, chemiluminescent signal was captured using a Bio-Rad ChemiDoc XRS imaging device.

Data set [4] deals with Chinese hamster ovary (CHO) AA8 cell free extract excision nuclease. In words: In vitro excision assay with mammalian cell-free extract. It is filed as biochemical. As to conditions: 140bp duplex substrates, CHO AA8 CFE, three biological replicates. On the procedure: In vitro excision assay: Radiolabeled 140-bp full length undamaged, (6-4) PP, and EdU damaged substrates were prepared, and in vitro excision assay with cell-free extract from Chinese hamster ovary (CHO) AA8 cells were carried out as previously described (ref 39). Briefly, Chinese hamster ovary (CHO) AA8 cell free extract (CFE) was prepared by the method of Manley (ref 42). Linear double-stranded DNA substrates (140bp in length) were prepared with centrally located (6-4) photoproduct or EdU as described previously (ref 43). The sequence of the centrally located 12-mers was […]; SEQ ID NO:4. For the (6-4) substrate, the (6-4) lesion was between T5 and T6. Single EdU was at T6 and, double EdU lesions were at T5 and T6. Unmodified 12mer and EdU containing 12mers were purchased from Integrated DNA Technologies.
The excision reaction with AA8 CFE (75 μg) was conducted with 20 fmol of 140bp substrates, 18 mM HEPES-KOH (pH 7.9), 24 mM KCl, 2 mM MgCl2, 4 mM ATP at 30° C. for 60 minutes as described (ref 35). After the excision reaction, the mixture was incubated with 0.34% SDS and 20 µg/ml Proteinase K at 55-60° C. for 15 minutes, then DNA was extracted with phenol:chloroform:isoamyl alcohol and precipitated with ethanol, resuspended in formamide/dye mixture, and separated with a 10% sequencing gel. Quantification of the signal intensities was done by using ImageJ.

For data set [5], the system named is HeLa cells. In words: XR-seq of EdU excision products. It counts as cell-based, human. Conditions: for TS/NTS ratio genome-wide: RNA Pol II transcribed genes.
For data set [6] the following is noted: in vivo; cited from earlier work.
For data set [7], the system named is NHF1 wild-type cells. In words: In vivo excision assay (anti-BrdU IP) in wild-type NHF1 cells. Conditions: wild type NHF1, 10 μM EdU, 24 h. It counts as cell-based, human.
Excerpt: (§3) Cell lines: NHF1 cells, telomerase-immortalized normal human fibroblast monolayers were obtained as described previously (ref 17), XPA-/-XPC-/-CSB-/- triple knock out NHF1 cells were generated using CRISPR Cas9 system with gRNAs (XPA: […] (SEQ ID NO:1); CSB: […] (SEQ ID NO:2); XPC: […] (SEQ ID NO:3)). The HeLa cell line was from the American Type Culture Collection (ATCC). NHF1 and HeLa cells were maintained in Dulbecco's modified Eagle's medium (DMEM) supplemented with 10% fetal bovine serum at 37° C. in a 5% CO2 humidified chamber.
as §2

The conditions of data set [8]: compared with other thymidine analogs used to study replication; cited from earlier work.
The test system of data set [9] is XPA-/-XPC-/-CSB-/- NHF1 cells. In words: In vivo excision assay (anti-BrdU IP) in excision repair defective NHF1 cells. It counts as cell-based, human. Conditions: XPA-/-XPC-/-CSB-/- mutant NHF1, 10 μM EdU, 24 h.
Excerpt: as §3, §2

The test system of data set [10] is primary human glioblastoma cell. As to conditions: same dose as Temozolomide; cited from earlier work.
For data set [11], the system named is an osteosarcoma and a glioblastoma cell line. Conditions: cited from earlier work.
For data set [12], the target named is Taq DNA polymerase (Thermus aquaticus, UniProt P19821). As to the kind of experiment: PCR of EdU-substituted genomic DNA with Taq DNA polymerase. It counts as biochemical. As to conditions: genomic DNA of cells treated with EdU for 24 hrs, CSA gene (946bp), 30 cycles.
Sequence of Taq DNA polymerase (P19821 whole entry): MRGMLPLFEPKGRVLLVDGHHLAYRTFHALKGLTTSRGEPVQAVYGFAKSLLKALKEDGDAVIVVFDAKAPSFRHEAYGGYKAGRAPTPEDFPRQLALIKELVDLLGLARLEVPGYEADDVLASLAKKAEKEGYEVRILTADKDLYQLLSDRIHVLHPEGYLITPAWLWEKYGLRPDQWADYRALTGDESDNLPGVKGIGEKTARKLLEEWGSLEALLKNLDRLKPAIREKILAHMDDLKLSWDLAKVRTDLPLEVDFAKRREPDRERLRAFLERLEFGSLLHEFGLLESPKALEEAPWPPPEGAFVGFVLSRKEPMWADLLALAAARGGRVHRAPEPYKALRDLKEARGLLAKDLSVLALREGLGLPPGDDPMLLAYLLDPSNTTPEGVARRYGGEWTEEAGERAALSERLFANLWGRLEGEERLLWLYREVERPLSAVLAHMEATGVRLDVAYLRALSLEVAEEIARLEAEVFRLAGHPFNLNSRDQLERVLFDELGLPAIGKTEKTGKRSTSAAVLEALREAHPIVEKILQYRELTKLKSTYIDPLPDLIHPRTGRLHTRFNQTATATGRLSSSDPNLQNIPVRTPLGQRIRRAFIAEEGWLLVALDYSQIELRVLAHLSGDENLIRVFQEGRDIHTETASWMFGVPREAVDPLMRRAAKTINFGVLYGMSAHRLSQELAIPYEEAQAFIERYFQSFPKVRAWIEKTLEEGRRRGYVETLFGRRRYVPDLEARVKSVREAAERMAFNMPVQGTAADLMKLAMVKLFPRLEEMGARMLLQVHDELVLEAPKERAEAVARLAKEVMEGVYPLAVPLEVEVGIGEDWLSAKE
The mark [13] stands for this setting: HeLa cells, 10 μM thymidine analog, 24 h.

On to `[N-]=[N+]=NCc1cn([C@H]2C[C@H](O)[C@@H](CO)O2)c(=O)[nH]c1=O` [AmdU, 5-(azidomethyl)-2′-deoxyuridine], for which the “excised by human nucleotide excision repair (TFIIH IP)” value in data set [1] (setting [13]) is given as “only EdU is excised”. The “substrate for excision repair” value in data set [1] is “not to be substrates for excision repair”.

On to `O=c1[nH]c(=O)n([C@H]2C[C@H](O)[C@@H](CO)O2)cc1Br` [BrdU, 5-Bromo-2′-deoxyuridine], for which, in data set [1], the “substrate for excision repair” value is “not to be substrates for excision repair”. Further, the “excised oligomers (nominal 26-mer) precipitated by anti-BrdU antibodies” value (shortened to “excised oligomers”) in data set [2] was “not”. Also, in data set [3], the “incorporation into replicating HeLa cells” value is “similarly incorporated”.

With `O=c1[nH]c(=O)n([C@H]2C[C@H](O)[C@@H](CO)O2)cc1Cl` [CldU, 5-Chloro-2′-deoxyuridine], the “substrate for excision repair” value in [1] is given as “not to be substrates for excision repair”. Further, the “excised oligomers” value in [2] is given as “not”. In addition, in data set [3], the “incorporation into replicating HeLa cells” value is recorded as “similarly incorporated”.

`C#Cc1cn([C@H]2C[C@H](O)[C@@H](CO)O2)c(=O)[nH]c1=O` [EdU, 5-Ethynyl-2′-deoxyuridine]: the “length of excision products isolated with anti-TFIIH antibodies” value in data set [1] (setting [13]) is 25-32 nucleotide. Also, in [1], the “substrate for excision repair” value is on record as “substrate for excision repair”. The “in vitro excision (percentage of excision relative to total amount of substrate)” value in [4] was “efficient substrate for the mammalian excision nucleases”. For the same compound, the “XR-seq reads over active promoter, weak promoter, strong enhancer and transcription transition region” value in data set [5] (15 ChromHMM chromatin states, 6 h to 48 h) is given as “relatively high”. Moreover, the TS/NTS ratio genome-wide in data set [5] (6 h EdU treatment) is about 2.5; in [5] (48 h EdU treatment), about 1.2. Also, in [5] (HACD3, DHFR, and MSH3 genes), the “time at which TS/NTS repair ratio peaks” value is 6 h. Moreover, the “peak of length distribution of excision products” value in data set [5] (anti-TFIIH IP, XR-seq) is given as 25-27 nucleotides. Also, the “repair of EdU at DNase hypersensitivity peaks” value in data set [5] (gene and intergenic regions) was “significantly enriched”. Also, in data set [6], the “crossing of the blood-brain-barrier” value is “crosses the blood-brain-barrier”. Besides, the “time of peak level of excised EdU-containing fragments” value in data set [2] (10 μM EdU for 3 to 48 hrs) worked out at 24 h. The “length of excised oligonucleotides under yellow light and ordinary room light” value in data set [2] (10 μM EdU, 24 hours, both light conditions) is recorded as 22-30 nts. For the same compound, in data set [2], the “excised oligomers” value is given as “precipitated oligomers in the form of nominal 26-mer”. For the same compound, in data set [2] (4 hours EdU, then EdU-free medium, up to 12 hrs), the “time that EdU removal continues after pulse labeling” value is “at least 12 hrs”. The figures for the excision product entry in [7] and in data set [9] were “excision product seen” and “no excision product”, respectively. For the same compound, the toxicity result in [8] was “highly toxic”. In addition, in data set [3], the “incorporation into replicating HeLa cells” value is recorded as “similarly incorporated”. In addition, the “apoptosis relative to Temozolomide” value in data set [10] is recorded as 3-5 fold. For the same compound, in data set [10], the “strand breaks relative to Temozolomide” value is 3-5 fold. In addition, the “suppressing cell proliferation compared with BrdU” value in [11] is on record as “outperform BrdU”. The “PCR product from EdU-substituted genomic DNA template” value in data set [12] is given as “produced full-size fragments”.

As to `C#Cc1cn([C@@H]2O[C@H](CO)[C@@H](O)[C@@H]2F)c(=O)[nH]c1=O` [F-ara-EdU, (2′S)-2-Deoxy-2-fluoro-5-ethynyluridine], in data set [1] (setting [13]), the “excised by human nucleotide excision repair (TFIIH IP)” value is reported as “only EdU is excised”. The “substrate for excision repair” value in [1] is reported as “not to be substrates for excision repair”.

Regarding `O=c1[nH]c(=O)n([C@H]2C[C@H](O)[C@@H](CO)O2)cc1I` [IdU, 5-Iodo-2′-deoxyuridine], the “substrate for excision repair” value in data set [1] is “not to be substrates for excision repair”. Also, in data set [2], the “excised oligomers” value is recorded as “not”. For the same compound, the “incorporation into replicating HeLa cells” value in data set [3] is “similarly incorporated”.
